Where two headings read alike, the source gives them in different places.
Assays:
HCC827 cells = system: HCC827 cells
Protocol: (§1) All culture media were supplemented with FBS (10 %) and P/S (1 %), and the cells were grown at 37 °C in 5 % CO2.
(§2) The cells were treated with MTT and incubated for 2 h. The supernatants were removed, and the remaining formazan crystals were dissolved in DMSO before absorbance measurement at 570 nm using a Multiscan GO spectrophotometer (Thermo Fisher Scientific, Vantaa, Finland).

HCC827GR cells = system: HCC827GR cells
Protocol: as §1, §2

HaCaT cells = system: HaCaT cells
Protocol: as §1, §2

Bad = experiment: Immunoblot Bad in HCC827 and HCC827GR cells; assay type: cell-based, human
Protocol: (§3) HaCaT cells were grown in DMEM, whereas HCC827 and HCC827GR cells were grown in RPMI 1640. All culture media were supplemented with FBS (10 %) and P/S (1 %), and the cells were grown at 37 °C in 5 % CO2.
(§4) Cells were lysed in RIPA buffer, and protein concentration was determined using a Bio-Rad DC Protein Assay kit (Bio-Rad, Hercules, CA, USA). Protein samples from the cell lysates were resolved by sodium dodecyl sulfate-polyacrylamide gel electrophoresis and then transferred onto polyvinylidene fluoride membranes. The membranes were blocked with 3 % or 5 % skim milk and then incubated at 4 °C overnight with the indicated primary antibodies, followed by the corresponding horseradish peroxidase-conjugated secondary antibodies at RT for 2 h. Protein bands were visualized using western blotting luminol reagent solution and ImageQuant LAS 500 (GE Healthcare, Uppsala, Sweden). The density of the bands was quantified using ImageJ software (NIH, Bethesda, MD, USA).

EGFR = molecular target: T1, EGFR (Homo sapiens, UniProt P00533); experiment: In vitro ADP-Glo kinase assay, EGFR; assay type: biochemical
T1 construct: purchased Promega
Protocol: (§5) Subsequently, each well was added with ADP-Glo reagent and incubated for another 40 min. After completion of the kinase reaction, each well was added with kinase activity detection reagent and then incubated for 30 min. Liquid was dispensed with I.DOT (Dispendix, Stuttgart, Germany). Luminescence was measured on a Centro LB 960 microplate luminometer (Berthold Technologies).

AKT1 = molecular target: T2, AKT1 (Homo sapiens, UniProt P31749); experiment: In vitro ADP-Glo kinase assay, AKT1; assay type: biochemical
T2 construct: purchased Promega
Protocol: as §5

caspase-3 = experiment: Immunoblot caspase-3 in HCC827 and HCC827GR cells; assay type: cell-based, human; settings: for caspase3 protein Ratio: DBG 0 nM = 1.00
Protocol: as §3, §4

[1] = system: cytochrome c (mitochondrial); experiment: Immunoblot mitochondrial cytochrome c in HCC827 and HCC827GR cells; assay type: cell-based, human; settings: for cyto c (mitosol) protein Ratio: DBG 0 nM = 1.00
Protocol: as §4
The cells were suspended in plasma membrane extraction buffer [250 mM sucrose, 10 mM HEPES (pH 8.0), 10 mM KCl, 1.5 mM MgCl2• 6H2O, 1 mM EGTA, 1 mM EDTA, 0.1 mM PMSF, 0.01 mg/ml aprotinin, and 0.01 mg/ml leupeptin], and 0.1 % digitonin was added for vortexing (1 min). The supernatant was collected as the cytosolic fraction. The pellet was resuspended in plasma membrane extraction buffer containing 0.5 % Triton X-100. The lysates were centrifuged at 13,000 rpm for 30 min to separate the mitochondrial fraction.

T1 sequence (P00533 25-1210): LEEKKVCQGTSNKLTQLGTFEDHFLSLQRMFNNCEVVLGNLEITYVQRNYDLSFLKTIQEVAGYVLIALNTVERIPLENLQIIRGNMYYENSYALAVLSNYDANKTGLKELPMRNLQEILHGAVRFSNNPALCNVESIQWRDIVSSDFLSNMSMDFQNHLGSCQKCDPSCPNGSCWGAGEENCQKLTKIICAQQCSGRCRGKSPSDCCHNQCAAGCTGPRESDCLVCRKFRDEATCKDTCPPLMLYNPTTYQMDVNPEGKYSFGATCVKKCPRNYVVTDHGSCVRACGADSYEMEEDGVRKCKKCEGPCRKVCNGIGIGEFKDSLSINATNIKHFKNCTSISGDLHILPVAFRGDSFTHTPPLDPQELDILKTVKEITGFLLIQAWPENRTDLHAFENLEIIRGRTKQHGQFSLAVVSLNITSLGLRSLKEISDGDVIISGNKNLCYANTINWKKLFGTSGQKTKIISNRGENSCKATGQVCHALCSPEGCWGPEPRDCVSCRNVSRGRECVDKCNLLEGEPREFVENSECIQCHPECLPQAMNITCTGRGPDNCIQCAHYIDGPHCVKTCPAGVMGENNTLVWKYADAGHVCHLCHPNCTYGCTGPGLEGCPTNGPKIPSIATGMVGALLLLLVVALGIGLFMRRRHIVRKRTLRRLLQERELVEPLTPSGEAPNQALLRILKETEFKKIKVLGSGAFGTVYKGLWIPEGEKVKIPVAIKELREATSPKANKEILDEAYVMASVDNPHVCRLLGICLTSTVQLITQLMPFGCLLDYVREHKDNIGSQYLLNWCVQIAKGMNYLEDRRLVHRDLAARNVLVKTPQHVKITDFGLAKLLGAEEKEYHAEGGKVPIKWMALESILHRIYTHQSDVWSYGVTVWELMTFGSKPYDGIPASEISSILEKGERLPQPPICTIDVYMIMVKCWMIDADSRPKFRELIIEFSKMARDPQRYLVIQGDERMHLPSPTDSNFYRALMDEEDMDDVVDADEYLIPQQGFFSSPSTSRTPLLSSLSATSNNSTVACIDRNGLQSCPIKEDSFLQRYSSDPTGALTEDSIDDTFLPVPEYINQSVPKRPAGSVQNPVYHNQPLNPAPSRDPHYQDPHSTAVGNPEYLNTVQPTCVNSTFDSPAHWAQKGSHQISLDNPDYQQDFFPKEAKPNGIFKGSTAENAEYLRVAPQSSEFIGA
T2 sequence (P31749 whole entry): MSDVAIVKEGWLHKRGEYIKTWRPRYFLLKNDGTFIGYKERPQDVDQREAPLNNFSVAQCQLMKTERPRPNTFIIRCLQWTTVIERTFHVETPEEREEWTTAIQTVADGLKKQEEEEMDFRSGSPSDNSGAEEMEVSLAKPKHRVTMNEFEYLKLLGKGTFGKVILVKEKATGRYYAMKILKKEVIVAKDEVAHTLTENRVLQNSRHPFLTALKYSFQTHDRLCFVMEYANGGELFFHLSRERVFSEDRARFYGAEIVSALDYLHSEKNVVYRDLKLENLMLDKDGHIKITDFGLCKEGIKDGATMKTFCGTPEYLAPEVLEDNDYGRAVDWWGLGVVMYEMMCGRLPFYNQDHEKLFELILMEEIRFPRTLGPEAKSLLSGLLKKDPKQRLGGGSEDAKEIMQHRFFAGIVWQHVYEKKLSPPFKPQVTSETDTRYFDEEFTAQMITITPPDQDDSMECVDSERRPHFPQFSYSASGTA

## COc1ccc(C[C@H]2C(=O)N[C@@H](C)C(=O)N(C)[C@H]3Cc4ccc(cc4)Oc4cc(ccc4O[C@@H]4O[C@H](CO)[C@@H](O)[C@H](O)[C@H]4O)C[C@@H](C(=O)N[C@H](C)C(=O)N[C@@H](C)C(=O)N2C)N(C)C3=O)cc1 [DBG, deoxybouvardin glucoside]
HCC827 cells; 24 h, DBG 3 nM, replicate 1
  cell viability: 86.91%
HCC827 cells; 24 h, DBG 3 nM, replicate 2
  cell viability: 83.02%
HCC827 cells; 24 h, DBG 3 nM, replicate 3
  cell viability: 81.91%
HCC827 cells; 24 h, DBG 6 nM, replicate 1
  cell viability: 73.81%
HCC827 cells; 24 h, DBG 6 nM, replicate 2
  cell viability: 74.94%
HCC827 cells; 24 h, DBG 6 nM, replicate 3
  cell viability: 75.18%
HCC827 cells; 24 h, DBG 12 nM, replicate 1
  cell viability: 63.61%
HCC827 cells; 24 h, DBG 12 nM, replicate 2
  cell viability: 64.36%
HCC827 cells; 24 h, DBG 12 nM, replicate 3
  cell viability: 66.17%
HCC827 cells; 48 h
  IC50: 8.6 nM
HCC827 cells; 48 h, DBG 3 nM, replicate 1
  cell viability: 82.82%
HCC827 cells; 48 h, DBG 3 nM, replicate 2
  cell viability: 81.25%
HCC827 cells; 48 h, DBG 3 nM, replicate 3
  cell viability: 79.60%
HCC827 cells; 48 h, DBG 6 nM, replicate 1
  cell viability: 60.78%
HCC827 cells; 48 h, DBG 6 nM, replicate 2
  cell viability: 58.53%
HCC827 cells; 48 h, DBG 6 nM, replicate 3
  cell viability: 60.97%
HCC827 cells; 48 h, DBG 12 nM, replicate 1
  cell viability: 37.02%
HCC827 cells; 48 h, DBG 12 nM, replicate 2
  cell viability: 36.88%
HCC827 cells; 48 h, DBG 12 nM, replicate 3
  cell viability: 36.42%
HCC827 cells; DBG 3, 6, 12 nM
  viability, in words: suppressed the viability
HCC827GR cells; 24 h, DBG 3 nM, replicate 1
  cell viability: 88.10%
HCC827GR cells; 24 h, DBG 3 nM, replicate 2
  cell viability: 92.63%
HCC827GR cells; 24 h, DBG 3 nM, replicate 3
  cell viability: 91.95%
HCC827GR cells; 24 h, DBG 6 nM, replicate 1
  cell viability: 81.14%
HCC827GR cells; 24 h, DBG 6 nM, replicate 2
  cell viability: 86.21%
HCC827GR cells; 24 h, DBG 6 nM, replicate 3
  cell viability: 84.35%
HCC827GR cells; 24 h, DBG 12 nM, replicate 1
  cell viability: 77.73%
HCC827GR cells; 24 h, DBG 12 nM, replicate 2
  cell viability: 74.83%
HCC827GR cells; 24 h, DBG 12 nM, replicate 3
  cell viability: 73.57%
HCC827GR cells; 48 h
  IC50: 8.65 nM
HCC827GR cells; 48 h, DBG 3 nM, replicate 1
  cell viability: 81.02%
HCC827GR cells; 48 h, DBG 3 nM, replicate 2
  cell viability: 78.86%
HCC827GR cells; 48 h, DBG 3 nM, replicate 3
  cell viability: 79.86%
HCC827GR cells; 48 h, DBG 6 nM, replicate 1
  cell viability: 59.60%
HCC827GR cells; 48 h, DBG 6 nM, replicate 2
  cell viability: 58.31%
HCC827GR cells; 48 h, DBG 6 nM, replicate 3
  cell viability: 59.16%
HCC827GR cells; 48 h, DBG 12 nM, replicate 1
  cell viability: 38.12%
HCC827GR cells; 48 h, DBG 12 nM, replicate 2
  cell viability: 38.18%
HCC827GR cells; 48 h, DBG 12 nM, replicate 3
  cell viability: 39.51%
HCC827GR cells; DBG 3, 6, 12 nM
  viability, in words: suppressed the viability
HaCaT cells; 24 h, DBG 3 nM, replicate 1
  cell viability: 103.33%
HaCaT cells; 24 h, DBG 3 nM, replicate 2
  cell viability: 102.45%
HaCaT cells; 24 h, DBG 3 nM, replicate 3
  cell viability: 101.31%
HaCaT cells; 24 h, DBG 6 nM, replicate 1
  cell viability: 101.02%
HaCaT cells; 24 h, DBG 6 nM, replicate 2
  cell viability: 102.90%
HaCaT cells; 24 h, DBG 6 nM, replicate 3
  cell viability: 101.77%
HaCaT cells; 24 h, DBG 12 nM, replicate 1
  cell viability: 101.52%
HaCaT cells; 24 h, DBG 12 nM, replicate 2
  cell viability: 102.50%
HaCaT cells; 24 h, DBG 12 nM, replicate 3
  cell viability: 100.11%
HaCaT cells; 48 h, DBG 3 nM, replicate 1
  cell viability: 101.48%
HaCaT cells; 48 h, DBG 3 nM, replicate 2
  cell viability: 104.66%
HaCaT cells; 48 h, DBG 3 nM, replicate 3
  cell viability: 100.09%
HaCaT cells; 48 h, DBG 6 nM, replicate 1
  cell viability: 97.99%
HaCaT cells; 48 h, DBG 6 nM, replicate 2
  cell viability: 98.42%
HaCaT cells; 48 h, DBG 6 nM, replicate 3
  cell viability: 101.29%
HaCaT cells; 48 h, DBG 12 nM, replicate 1
  cell viability: 98.16%
HaCaT cells; 48 h, DBG 12 nM, replicate 2
  cell viability: 94.89%
HaCaT cells; 48 h, DBG 12 nM, replicate 3
  cell viability: 94.68%
HaCaT cells; DBG 3, 6, 12 nM
  viability, in words: did not affect
Bad; HCC827, DBG 3 nM, DBG 0 nM 0.16
  Bad protein/actin: 0.25
Bad; HCC827, DBG 3 nM, relative to DBG 12 nM = 1.00, DBG 0 nM 0.19
  Bad protein Ratio: 0.31
Bad; HCC827, DBG 6 nM, DBG 0 nM 0.16
  Bad protein/actin: 0.69
Bad; HCC827, DBG 6 nM, relative to DBG 12 nM = 1.00, DBG 0 nM 0.19
  Bad protein Ratio: 0.84
Bad; HCC827, DBG 12 nM (reference of the ratio, 1.00), DBG 0 nM 0.19
  Bad protein Ratio: 1.00
Bad; HCC827, DBG 12 nM, DBG 0 nM 0.16
  Bad protein/actin: 0.82
Bad; HCC827GR, DBG 3 nM, DBG 0 nM 0.28
  Bad protein/actin: 0.22
Bad; HCC827GR, DBG 3 nM, relative to DBG 12 nM = 1.00, DBG 0 nM 0.49
  Bad protein Ratio: 0.39
Bad; HCC827GR, DBG 6 nM, DBG 0 nM 0.28
  Bad protein/actin: 0.59
Bad; HCC827GR, DBG 6 nM, relative to DBG 12 nM = 1.00, DBG 0 nM 0.49
  Bad protein Ratio: 1.03
Bad; HCC827GR, DBG 12 nM (reference of the ratio, 1.00), DBG 0 nM 0.49
  Bad protein Ratio: 1.00
Bad; HCC827GR, DBG 12 nM, DBG 0 nM 0.28
  Bad protein/actin: 0.57
Bad; NSCLC cells, DBG
  level of Bad: increased
EGFR; ADP-Glo, EGFR 4 ng, RT, 60 min, luminescence, n=3
  IC50: 7.23 nM
EGFR; DBG 3, 6, 12 nM
  kinase activity, in words: significantly inhibited
AKT1; ADP-Glo, AKT1 10 ng, RT, 60 min, luminescence, n=3
  IC50: 6.86 nM
AKT1; DBG 3, 6, 12 nM
  kinase activity, in words: significantly inhibited
caspase-3; HCC827, DBG 3 nM, DBG 0 nM 0.88
  caspase3 protein/actin: 0.62
caspase-3; HCC827, DBG 3 nM
  caspase3 protein Ratio: 0.71
caspase-3; HCC827, DBG 6 nM, DBG 0 nM 0.88
  caspase3 protein/actin: 0.55
caspase-3; HCC827, DBG 6 nM
  caspase3 protein Ratio: 0.62
caspase-3; HCC827, DBG 12 nM, DBG 0 nM 0.88
  caspase3 protein/actin: 0.14
caspase-3; HCC827, DBG 12 nM
  caspase3 protein Ratio: 0.16
caspase-3; HCC827GR, DBG 3 nM, DBG 0 nM 0.55
  caspase3 protein/actin: 0.60
caspase-3; HCC827GR, DBG 3 nM
  caspase3 protein Ratio: 1.11
caspase-3; HCC827GR, DBG 6 nM, DBG 0 nM 0.55
  caspase3 protein/actin: 0.48
caspase-3; HCC827GR, DBG 6 nM
  caspase3 protein Ratio: 0.87
caspase-3; HCC827GR, DBG 12 nM, DBG 0 nM 0.55
  caspase3 protein/actin: 0.30
caspase-3; HCC827GR, DBG 12 nM
  caspase3 protein Ratio: 0.54
caspase-3; HCC827 and HCC827GR, DBG
  level of whole caspase-3: decreased
[1]; HCC827, DBG 3 nM, DBG 0 nM 119.45
  cyto c (mitosol) cyto c/COX4/actin (A): 66.38
[1]; HCC827, DBG 3 nM
  cyto c (mitosol) protein Ratio: 0.56
[1]; HCC827, DBG 6 nM, DBG 0 nM 119.45
  cyto c (mitosol) cyto c/COX4/actin (A): 25.00
[1]; HCC827, DBG 6 nM
  cyto c (mitosol) protein Ratio: 0.21
[1]; HCC827, DBG 12 nM, DBG 0 nM 119.45
  cyto c (mitosol) cyto c/COX4/actin (A): 23.24
[1]; HCC827, DBG 12 nM
  cyto c (mitosol) protein Ratio: 0.19
[1]; HCC827GR, DBG 3 nM, DBG 0 nM 168.86
  cyto c (mitosol) cyto c/COX4/actin (A): 137.25
[1]; HCC827GR, DBG 3 nM
  cyto c (mitosol) protein Ratio: 0.81
[1]; HCC827GR, DBG 6 nM, DBG 0 nM 168.86
  cyto c (mitosol) cyto c/COX4/actin (A): 47.89
[1]; HCC827GR, DBG 6 nM
  cyto c (mitosol) protein Ratio: 0.28
[1]; HCC827GR, DBG 12 nM, DBG 0 nM 168.86
  cyto c (mitosol) cyto c/COX4/actin (A): 7.39
[1]; HCC827GR, DBG 12 nM
  cyto c (mitosol) protein Ratio: 0.0438

Source: paper PMC11579512, “Deoxybouvardin-glucoside induces apoptosis in non-small cell lung cancer cells by targeting EGFR/MET and AKT signaling pathway” (EXCLI Journal, 2024)
